Test results from ChEMBL document CHEMBL1152465, “Comparative evaluation of the inhibitory activities of a series of pyrimidinedione congeners that inhibit human immunodeficiency virus types 1 and 2” (Antimicrob Agents Chemother, 2008).
Calls of active or inactive are those of the source.

What was measured:
[1] = Therapeutic index, ratio of TC50 for human CEM-SS cells to EC50 for HIV2 ROD infected in human CEM-SS cells; type: cell-based; conditions: for selectivity ratio: CEM-SS cells, read-out: TI; for TI: cem-ss
[2] = Therapeutic index, ratio of TC50 for human CEM-SS cells to EC50 for HIV1 RF infected in human CEM-SS cells; type: cell-based; conditions: read-out: TI
[3] = Therapeutic index, ratio of TC50 human HeLa cells expressing CD4-LTR to EC50 for HIV1 entry inhibition in human HeLa cells expressing CD4-LTR; type: cell-based; conditions: read-out: TI
[4] = system: Human immunodeficiency virus 1; test: Antiviral activity against HIV1 RF infected in human CEM-SS cells assessed as inhibition of virus-induced cytopathic effect by XTT assay; type: functional, organism-based; conditions: Human immunodeficiency virus 1, RF
[5] = system: Human immunodeficiency virus 1; test: Antiviral activity against HIV1 infected in human HeLa cells expressing CD4-LTR assessed as inhibition of viral entry-related beta galactosidase expression treated for 2 hrs followed by drug wash out measured after 48 hrs by MAGI assay; type: functional, organism-based; conditions: Human immunodeficiency virus 1, HeLa
[6] = system: Simian immunodeficiency virus; test: Antiviral activity against SIV MAC251 infected in human 174xCEM cells assessed as inhibition of virus-induced cytopathic effect; type: functional, organism-based
[7] = target: Human immunodeficiency virus type 1 reverse transcriptase (Human immunodeficiency virus 1, UniProt Q72547, K103N); test: Inhibition of HIV1 reverse transcriptase K103N mutant assessed as 32P-labeled GMP incorporation into nascent DNA strand
[8] = system: Human immunodeficiency virus 2; test: Inhibition of HIV2 reverse transcriptase assessed as 32P-labeled GMP incorporation into nascent DNA strand at highest concentration
[9] = Cytotoxicity against human HeLa cells expressing CD4-LTR by XTT assay; type: cell-based; conditions: read-out: TC50 (the source's name)
[10] = target: Human immunodeficiency virus type 1 reverse transcriptase (Human immunodeficiency virus 1, UniProt Q72547); test: Inhibition of wild type HIV1 reverse transcriptase assessed as 32P-labeled GMP incorporation into nascent DNA strand
[11] = system: Human immunodeficiency virus 2; test: Antiviral activity against HIV2 assessed as inhibition of viral single round replication at early time point; type: functional, organism-based
[12] = system: Human immunodeficiency virus 2; test: Antiviral activity against HIV2 ROD infected in human CEM-SS cells assessed as inhibition of virus-induced cytopathic effect by XTT assay; type: functional, organism-based, ISOLATE ROD
[13] = system: Human immunodeficiency virus 2; test: Inhibition of HIV2 reverse transcriptase
[14] = system: Human immunodeficiency virus 2; test: Antiviral activity against HIV2 assessed as inhibition of viral replication treated at time points after viral entry into host cells; type: functional, organism-based
[15] = Cytotoxicity against human CEM-SS cells by XTT assay; type: cell-based; conditions: read-out: TC50 (the source's name)
[16] = system: Human immunodeficiency virus 1; test: Antiviral activity against HIV1 infected in human CEM-SS cells assessed as inhibition of viral replication and virus-induced cytopathic effect by dose-response curve analysis; type: functional; conditions: Human immunodeficiency virus 1, CEM-SS
HeLa = test: Inhibition of HIV1 gp120/CD4 interaction assessed as inhibition of gp120 and gp41 coexpressing human HL2/3 cell fusion to CD4 expressing human HeLa cells treated for 2 hrs measured after 48 hrs by chemiluminescence assay; type: cell-based; conditions: Human immunodeficiency virus 1
[17] = system: Human immunodeficiency virus 2; test: Antiviral activity against HIV2 infected in human CEM-SS cells assessed as inhibition of viral replication and virus-induced cytopathic effect by dose-response curve analysis; type: functional; conditions: Human immunodeficiency virus 2, CEM-SS
[18] = Human immunodeficiency virus 2, ISOLATE ROD, CEM-SS, read-out: EC50

Row | SMILES | selectivity ratio [1] | selectivity ratio [2] | selectivity ratio [3] | EC50 [4] [µM] | EC50 [5] [µM] | Activity [6] | IC50 [7] [µM] | Activity [8] | CC50 [9] [µM] | IC50 [10] [µM] | Activity [11] | EC50 [12, 18] [µM] | Activity [13] | Activity [14] | CC50 [15] [µM] | EC99 [16] [µM] | inhibition (HeLa) | EC99 [17] [µM] | TI [1] | EC50 ([12]; cem-ss)
1 | Cc1cc(C)cc(Oc2c(C(C)C)c(=O)[nH]c(=O)n2Cc2ccccc2)c1 | 278 | 2720 | 4180 | 0.014 | 0.009 | inactive | 0.975 | inactive | 38.2 | 0.114 | Active | 0.1 | inactive | inactive | 38.2 | 1 | inactive | – | – | –
2 | CCc1c(Oc2cc(C)cc(C)c2)n(CC2CCC2)c(=O)[nH]c1=O | > 172 | 54200 | 3960 | 0.022 | 0.3 | – | 0.289 | inactive | 1200 | 0.235 | Active | 7.2 | inactive | inactive | 1200 | 1 | – | > 100 | – | –
3 | CCc1c(Sc2cc(C)cc(C)c2)n(CC2CCC2)c(=O)[nH]c1=O | 16.3 | 80800 | 4610 | 0.0123 | 0.11 | – | > 290 | inactive | 509 | 0.02 | Active | 1.7 | inactive | inactive | 27 | 1 | – | 40 | – | –
4 | Cc1cc(C)cc(Oc2c(C(C)C)c(=O)[nH]c(=O)n2CC2CC2)c1 | 40 | 15500 | 86 | 0.0018 | 0.27 | – | 0.067 | inactive | 23.4 | 0.012 | Active | 0.5 | inactive | inactive | 19.5 | – | – | 1 | – | –
5 | Cc1cc(C)cc(Oc2c(C(C)C)c(=O)[nH]c(=O)n2CC2CCC2)c1 | 12.2 | 32200 | – | 0.0005 | 0.26 | inactive | 0.213 | inactive | 16.6 | 0.12 | Active | 1.3 | inactive | inactive | 16.1 | 1 | inactive | – | – | –
6 | CCc1c(Oc2cc(C)cc(C)c2)n(CC2CC=CC2)c(=O)[nH]c1=O | > 3.2 | 170000 | 6850 | 0.0071 | 0.09 | – | 5.1 | inactive | 630 | 0.38 | Active | 19 | inactive | inactive | 1200 | 0.2 | – | > 100 | – | –
7 | Cc1cc(C)cc(Sc2c(C(C)C)c(=O)[nH]c(=O)n2CC2=CCCC2)c1 | 57.4 | 5920 | 3270 | 0.005 | 0.009 | – | > 270 | inactive | 29.4 | 0.079 | Active | 0.5 | inactive | inactive | 29.4 | 0.0003 | – | 1 | – | –
8 | CCc1c(C(=O)c2cc(C)cc(C)c2)n(CC2CC2)c(=O)[nH]c1=O | 2650 | 125000 | 197000 | 0.0096 | 0.006 | – | 1.78 | inactive | 1210 | 0.178 | Active | 0.5 | inactive | inactive | 1200 | 0.01 | – | 100 | – | –
9 | CCc1c(Sc2cc(C)cc(C)c2)n(Cc2ccccc2)c(=O)[nH]c1=O | > 2490 | 598000 | 5980 | 0.0018 | 0.18 | inactive | 4.05 | inactive | 1100 | 15.6 | Active | 0.4 | inactive | inactive | 1100 | 1 | inactive | – | – | –
10 | CCc1c(Oc2cc(C)cc(C)c2)n(Cc2ccccc2)c(=O)[nH]c1=O | 2550 | 165000 | 10200 | 0.0049 | 0.08 | – | 0.197 | inactive | 802 | 0.095 | Active | 0.3 | inactive | inactive | 802 | 0.3 | – | 0.3 | – | –
11 | Cc1cc(C)cc(C(=O)c2c(C(C)C)c(=O)[nH]c(=O)n2CC2CCCC2)c1 | 40 | 5080 | 203 | 0.0035 | 0.08 | – | 15.3 | inactive | 16.6 | 0.147 | Active | 0.4 | inactive | inactive | 15.2 | 1 | – | – | – | –
12 | CC(C)c1c(Sc2ccccc2)n(CC2CC=CC2)c(=O)[nH]c1=O | – | 1300 | 22 | 0.028 | 1.19 | – | > 292 | inactive | 25.9 | 0.244 | Active | – | inactive | inactive | 15.5 | 1 | – | – | Not Active | Not Active
13 | CCc1c(Sc2ccccc2)n(CC2CC=CC2)c(=O)[nH]c1=O | – | 262 | 1250 | 0.15 | 0.02 | – | 17.1 | inactive | 30.3 | 0.366 | Active | – | inactive | inactive | 20.7 | 1 | – | – | Not Active | Not Active
14 | Cc1cc(C)cc(Oc2c(C(C)C)c(=O)[nH]c(=O)n2CCC2C=CCC2)c1 (stereo unspecified) | 21.5 | 3560 | 1650 | 0.0059 | 0.009 | – | 1.5 | inactive | 14.2 | 0.027 | Active | 0.4 | inactive | inactive | 7.6 | 1 | – | – | – | –
15 | CC(C)c1c(C(=O)c2ccccc2)n(CC2CC=CC2)c(=O)[nH]c1=O | > 65.5 | 200000 | 1480 | 0.0059 | 0.8 | – | > 295 | inactive | 1180 | 0.18 | Active | 18.1 | inactive | inactive | 1180 | 1 | – | – | – | –
16 | CCc1c(Oc2cc(C)cc(C)c2)n(CCC2C=CCC2)c(=O)[nH]c1=O (stereo unspecified) | > 1650 | 570000 | 17600 | 0.0019 | 0.06 | – | 1.96 | inactive | 1110 | 0.21 | Active | 0.7 | inactive | inactive | 1100 | 1 | – | – | – | –
